The record followed here is US20050026952A1, “Nicotinamide derivatives useful as PDE4 inhibitors” (Pfizer Inc, priority 2003, published 2005).

The test concerns TNFα release from human peripheral blood mononuclear cells. As to the kind of experiment: Inhibition of LPS-stimulated TNFα release from human peripheral blood mononuclear cells (TNFα screen). Format: cell-based. The conditions noted are these: human PBMC, LPS stimulation, 18 hours incubation, TNFα in supernatant by ELISA. As to the method: Venous blood is collected from healthy volunteers and the mononuclear cells purified by centrifugation through Histopaque (Ficoll) cushions. TNFα production from these cells is stimulated by addition of lipopolysaccharide. After 18 hours incubation in the presence of LPS, the cell supernatant is removed and the concentration of TNFα in the supernatant determined by ELISA. Addition of PDE4 inhibitors reduces the amount of TNFα produced. An IC50 is determined which is equal to the concentration of compound that gives 50% inhibition of TNFα production as compared to the LPS stimulated control wells.
In general terms: In an ELISA, binding on a coated surface is turned into a signal by an enzyme label.
A word on the IC50: it is the concentration that gives 50% inhibition. Read a high IC50 as a need for much substance. Regarding `CSc1cc(Oc2ncc(F)cc2C(=O)N[C@H]2CC[C@@H](NS(=O)(=O)c3cc(C)ccc3O)CC2)ccc1F` [Example 16, Syn-5-Fluoro-N-[4-(2-hydroxy-5-methyl-benzenesulphonylamino)-cyclohexyl]-2-(4-fluoro-3-methylsulphanyl-Phenoxy)-nicotinamide], the IC50 is 3500 pM. For the molecule `CSc1cccc(Oc2ncc(F)cc2C(=O)N[C@H]2CC[C@@H](NS(=O)(=O)c3cccc4nonc34)CC2)c1` [Example 12, Syn-N-[4-(Benzo[1,2,5]oxadiazole-4-sulphonylamino)-cyclohexyl]-5-fluoro-2-(3-methylsulphanyl-phenoxy)-nicotinamide], the IC50 turned out to be 300 pM.

The molecule `CSc1cccc(Oc2ncc(F)cc2C(=O)N[C@H]2CC[C@@H](NS(=O)(=O)c3cccc4cccnc34)CC2)c1` [Example 11, Syn-5-Fluoro-2-(3-methylsulphanyl-phenoxy)-N-[4-(quinoline-8-sulphonylamino)-cyclohexyl]-nicotinamide] had an IC50 of 70 pM. As to `CSc1cccc(Oc2ncc(F)cc2C(=O)N[C@H]2CC[C@@H](NS(=O)(=O)c3ccc(C)cc3O)CC2)c1` [Example 15, Syn-5-Fluoro-N-[4-(2-hydroxy-4-methyl-benzenesulphonylamino)-cyclohexyl]-2-(3-methylsulphanyl-phenoxy)-nicotinamide], 2000 pM corresponded to half-maximal inhibition (IC50). In the case of `CSc1cccc(Oc2ncc(F)cc2C(=O)N[C@H]2CC[C@@H](NS(=O)(=O)c3cccc4nsnc34)CC2)c1` [Example 13, Syn-N-[4-(Benzo[1,2,5]thiadiazole-4-sulphonylamino)-cyclohexyl]-5-fluoro-2-(3-methylsulphanyl-phenoxy)-nicotinamide] it was 90 pM; in that of `CSc1cccc(Oc2ncc(F)cc2C(=O)N[C@H]2CC[C@@H](NS(=O)(=O)c3c(O)ccc4nsnc34)CC2)c1` [Example 14], 1000 pM.
